The values below come from publication PMC3750255, “Inhibition of Mycoplasma pneumoniae growth by FDA-approved anticancer and antiviral nucleoside and nucleobase analogs” (BMC Microbiology, 2013).

Converted amounts (≈) assume the structure as drawn. Read-outs that look alike come from different tables or passages of the source.

In assay [1] the test system is M. pneumoniae wild type (laboratory strain M129). Nature of the assay: Mpn growth inhibition in 96-well plates (growth index A450/A560), wild type strain. Type of assay: cell-based, Mycoplasma pneumoniae. Conditions: for MIC: Mycoplasmoides pneumoniae. The method, then: (§1) A series dilution of each compound in Mycoplasma growth medium was added to Mpn cultures in 96-well plates. The plates were sealed and incubated at 37°C. Mpn growth was monitored by using growth index value e.g. the ratio of absorbance at 450 nm and 560 nm of the culture medium. Thirty nucleoside and nucleobase analogs and a nucleoside transporter inhibitor were included, and two Mpn strains, wild type and a thyA mutant (lacking TS activity), were used.
(§2) Nucleoside and nucleobase analogs were dissolved in dimethyl sulfoxide (DMSO) as stock solutions and diluted with Mpn culture medium to the desired concentration immediately prior to use.
(§3) Mpn laboratory strain M129 wild type and a thyA mutant strain [31] were used in this study. Mpn was cultured at 37°C in a CO2 incubator using 75 cm^2 tissue culture flasks containing 50 ml Hayflick’s medium, and harvested at day 4 when the medium color change was observed. The cells were harvested and the pellet was resuspended in 6 ml fresh medium and the cfu/ml was determined by serial dilution (10-fold) and plating on broth agar plate. Colonies was counted and cfu/ml was calculated.
(§4) Inhibition studies were performed in 96-well plates containing 200 μl Mpn culture (approximately 10^6 cfu ml^-1) in Hayflick’s medium and 200 μl each compound in series dilutions (2-fold) with the growth medium, with three to four replicas. The plates were sealed with clear adhesive sheets and incubated at 37°C incubator. Absorbance ratio at 450 nm and 560 nm was used as Mpn growth index, which was measured daily, and by visual detection for at least 8 days, as previously described. […] The MICs (minimal inhibitory concentration required to inhibit Mpn growth to 90%) were determined as the lowest concentration at which the growth index was ≈ 10% of the control values (at the time when the control culture medium color turned yellow), essentially as described.

The test system of assay [2] is M. pneumoniae thyA mutant (lacking TS activity). Nature of the assay: microbe, parasite or virus in culture. Type of assay: cell-based, Mycoplasma pneumoniae. Conditions: for MIC: Mycoplasmoides pneumoniae, read-out: thyA mutant MIC. As for the experimental part: as §1, §2, §3, §4

For the molecule `Nc1ncn([C@@H]2O[C@H](CO)[C@@H](O)[C@H]2O)c(=O)n1` [5-azacytidine], the MIC in assay [1] (read-out: Wild type MIC) and in assay [2] was greater than 500 µg/mL throughout.
Turning to `Cn1cnc([N+](=O)[O-])c1Sc1ncnc2nc[nH]c12` [Azathioprine], the MIC in assay [1] (read-out: Wild type MIC) and in assay [2] was greater than 500 µg/mL each time.
On to `Oc1ncnc2[nH]ncc12` [Allopurinol], for which the MIC in assay [1] (minimal concentration producing 90% inhibition, wild type Mpn, read-out: Wild type MIC) was greater than 500 µg/mL; in assay [2], greater than 500 µg/mL.
Take `Nc1nc2c(ncn2COCCO)c(=O)[nH]1` [Acyclovir]: the MIC in assay [1] (read-out: Wild type MIC) and in assay [2] was 15.6 µg/mL (≈ 69.3 µM) throughout.
As to `Cc1cn([C@H]2C=C[C@@H](CO)O2)c(=O)[nH]c1=O` [Stavudine], the MIC was 7.8 µg/mL (≈ 34.8 µM) in assay [1] (read-out: Wild type MIC) and 17.8 µg/mL (≈ 79.4 µM) in assay [2].
For the molecule `NC(=O)c1ncn([C@@H]2O[C@H](CO)[C@@H](O)[C@H]2O)n1` [Ribavirin], the values for the MIC in assay [1] (read-out: Wild type MIC) and in assay [2] were 62.5 µg/mL (≈ 256 µM) and greater than 500 µg/mL, respectively. Besides, the “Inhibition of wild type Mpn growth (in words)” value in assay [1] (wild type Mpn) is on record as “inhibited wild type Mpn”.
For `Nc1nc(O)c2ncn(COC(CO)CO)c2n1` [Gancyclovir] the same measures were 7.8 µg/mL (≈ 30.6 µM), greater than 500 µg/mL and “inhibited wild type Mpn”.
In the case of `CCc1nc(N)nc(N)c1-c1ccc(Cl)cc1` [Pyrimethamine], the MIC in assay [1] (read-out: Wild type MIC) and in assay [2] was greater than 500 µg/mL each time.
Consider `Nc1ccn(C[C@@H](CO)OCP(=O)(O)O)c(=O)n1` [Cidofovir], for which the MIC in assay [1] (read-out: Wild type MIC) and in assay [2] was 31.2 µg/mL (≈ 112 µM) each time.
On to `O=c1[nH]c(=O)n([C@H]2C[C@H](O)[C@@H](CO)O2)cc1I` [5-iododeoxyuridine], for which the results for the MIC in assay [1] (read-out: Wild type MIC) and in assay [2] were 15.6 µg/mL (≈ 44.1 µM) and greater than 500 µg/mL, respectively. In assay [1] (wild type Mpn), the “Inhibition of wild type Mpn growth (in words)” value is listed as “only inhibited the wild type Mpn growth”.
In the case of `CC(=O)CCCCn1c(=O)c2c(ncn2C)n(C)c1=O` [Pentoxifylline], the values for the MIC in assay [1] (read-out: Wild type MIC) and in assay [2] were 62.5 µg/mL (≈ 225 µM) and greater than 500 µg/mL, respectively. For the same molecule, in assay [1] (wild type Mpn), the “Inhibition of wild type Mpn growth (in words)” value is recorded as “inhibited wild type Mpn”.
As for `COc1c(C)c2c(c(O)c1C/C=C(\C)CCC(=O)OCCN1CCOCC1)C(=O)OC2` [Mycophenolate mofetil], the MIC in assay [1] (read-out: Wild type MIC) and in assay [2] was 250 µg/mL (≈ 577 µM) in each case.
As for `Nc1nc(F)nc2c1ncn2[C@@H]1O[C@H](COP(=O)(O)O)[C@@H](O)[C@@H]1O` [Fludarabine phosphate], the MIC in assay [1] (read-out: Wild type MIC) and in assay [2] was greater than 500 µg/mL throughout.
For `Nc1ccn([C@@H]2CS[C@H](CO)O2)c(=O)n1` [Lamivudine], the MIC in assay [1] (read-out: Wild type MIC) and in assay [2] was greater than 500 µg/mL in each case.
For `Nc1nc(=O)[nH]cc1F` [5-fluorocytosine], the MIC in assay [1] (read-out: Wild type MIC) and in assay [2] was 31.2 µg/mL (≈ 242 µM) throughout.
As for `CC(C)(C)C(=O)OCOP(=O)(COCCn1cnc2c(N)ncnc21)OCOC(=O)C(C)(C)C` [Adefovir depivoxil], in assay [1] (minimal concentration producing 90% inhibition, wild type Mpn), the “Wild type MIC” value is greater than 500 µg/mL. Moreover, the “thyA mutant MIC” value in assay [2] (minimal concentration producing 90% inhibition, thyA mutant Mpn) was greater than 500 µg/mL.
In the case of `O=c1[nH]cc(F)c(=O)[nH]1` [5-fluorouracil], the MIC in assay [1] (read-out: Wild type MIC) and in assay [2] was 31.2 µg/mL (≈ 240 µM) in each case.
On to `CN(C)[C@@H]1C(O)=C(C(N)=O)C(=O)[C@@]2(O)C(O)=C3C(=O)c4c(O)cccc4[C@@](C)(O)[C@H]3C[C@@H]12` [tetracycline], for which, in assay [1] (2 μg/ml tetracycline, up to 8 days), the “Mpn growth in control cultures (in words)” value was “no growth”. The MIC in assay [1] (strain not specified, 90% growth inhibition, read-out: MIC (Mpn growth)) turned out to be 0.1 µg/mL (≈ 0.225 µM).
For the molecule `Cn1c(=O)c2c(ncn2CC(O)CO)n(C)c1=O` (stereo not shown) [7-(2,3-dihydroxypropyl)theophylline], the MIC in assay [1] (read-out: Wild type MIC) and in assay [2] was greater than 500 µg/mL throughout.
As to `Cc1cn([C@H]2C[C@H](N=[N+]=[N-])[C@@H](CO)O2)c(=O)[nH]c1=O` [Zidovudine], the MIC in assay [1] (read-out: Wild type MIC) and in assay [2] was 7.8 µg/mL (≈ 29.2 µM) throughout.
Regarding `CC(C)[C@H](N)C(=O)OCCOCn1cnc2c(=O)[nH]c(N)nc21` [Valacyclovir], the MIC in assay [1] (read-out: Wild type MIC) and in assay [2] was greater than 500 µg/mL in each case. The “Inhibition of Mpn growth (in words)” value in assay [1] (strain not specified) is on record as “did not inhibit Mpn growth”.
Take `Nc1ccn([C@H]2CC[C@@H](CO)O2)c(=O)n1` [Zalcitabine]: the MIC in assay [1] (read-out: Wild type MIC) and in assay [2] was greater than 500 µg/mL throughout.
